From patent publication US7098216B2, “Thiazolopyrimidines useful as TNFα inhibitors” (The Regents of the University of California, priority 1999, dated 2006) come the findings set out here.

Like-named read-outs stand apart in the source and are kept apart here.

A short description of data set [1]: Acute toxicity testing in ICR mice, IP. It counts as in vivo. Conditions: five daily IP injections at 100 mg/kg, 30 days of observation. Here is the method: ICR mice (ca. 20 g) were injected IP for 5 days with 50 mg/kg, and 100 mg/kg of each of 8a and 8b dispersed in aqueous hydroxypropyl β-cyclodextrin (50% w/v).
Data set [2] relates to IL-1β production by human monocytes. Nature of the data set: Inhibition of LPS-induced IL-1β production in human monocytes (ELISA). The data set is classed as cell-based. Conditions: Monocyte; human monocytes stimulated with LPS (FIG. 2); read-out: 50% inhibitory dose, IL-1 production. The procedure:
(§1) Peripheral blood mononuclear cells were isolated from normal human blood on Hypaque-Ficoll density gradients. 100 μl aliquots of monocytes were placed onto 96 well microtiter plates at a density of […] in RPMI-1640 medium containing 10% autologous plasma. After incubation for 24 hrs., various concentrations of the test compound in DMSO were added to the plated cells in a volume of 100 μl and incubated for 1 hr. After incubation, […] of LPS was added to each well.
(§2) Eighteen hours after exposure of the plated cells to LPS, 100 μl of medium was collected from each well and assayed (by ELISA, R&D Systems) for release of IL-1 and TNFα, using recombinant human TNF as a standard (n=5). The sensitivity of the assay ranged from 10–100 pg/ml.
FIG. 2 summarizes the effects of 8b and 8a on the production of IL-1β by human monocytes stimulated with LPS, under the same conditions used for the TNFα study.

The test system of a further data set is TNFα in the plasma. As to the kind of experiment: Time course of TNFα inhibition after oral 8a in LPS-injected mice. It counts as in vivo, ICR mice. The conditions noted are these: 100 mg/kg by gavage, LPS 24 hours later (FIG. 6). Here is the method:
The purpose of these experiments was to determine how long after administration of compound 8a by gavage could its inhibitory effects on LPS-induced TNFα production be detected. Accordingly, all the ICR in this instance were given 8a at a dosage of 100 mg/kg by gavage. Then at 1, 4, 10, and 24 hours later, each animal received 1 μg/ml IP LPS, and two hours later (i.e., at 3, 6, 12, and 26 hours), blood was removed for TNFα ELISA.

Data set [3] deals with TNFα production in human monocytes. As to the kind of experiment: Inhibition of LPS-induced TNFα production in human monocytes (ELISA). The data set is classed as cell-based. Conditions: Monocyte. The procedure:
as §1, §2

For another data set, the system named is adjuvant arthritis. As to the kind of experiment: Adjuvant arthritis in Lewis rats. The data set is classed as in vivo. Conditions: 100 mg/kg by gavage daily. Here is the method:
Since TNFα antagonists have shown considerable value in the treatment of rheumatoid arthritis, compound 8a was evaluated in an animal model that is TNFα dependent. Adjuvant arthritis is an acute inflammatory disease induced in certain rat strains by the administration of heat-killed mycobacteria dispersed in […]. The disease is manifest by severe joint swelling, mainly of the ankles and feet.
Two groups of seven Lewis rats each were immunized intradermally with 5 mg of heat-killed mycobacterium tuberculosis emulsified in incomplete Freund's adjuvant. One day later, one group of animals (N=7) received 100 mg/kg of 8a by gavage. Another group of animals received no treatment. The oral dosing was continued every day up to day 30. […] The mean arthritis score can vary from 0 to 4 for each limb, yielding a maximum score of 16. Note that the untreated animals (group 1) achieved a mean arthritis score of 10 on day 18. In contrast, the treated animals reach a mean arthritis score of 5, for 50% inhibition.

A further data set concerns Jurkat cell line. As to the kind of experiment: Jurkat cell growth, MTT assay. It counts as cell-based, human. Conditions: concentration below 50 μM, 72 h, MTT (FIG. 3). The procedure: In this experiment, cells of the continuous human lymphoblastoid Jurkat cell line were suspended at 1×10^5/ml in complete medium containing various amounts of 8a and 8b dissolved in DMSO. Seventy-two hours later the cell density was assessed using the MTT assay, which measures the reduction of a tetrazolium dye. The cell densities were compared to control cultures lacking any additional drugs.
On the technique in general: Tetrazolium dyes change colour on reduction, which living cells bring about.

Data set [4] concerns TNFα plasma concentration. Nature of the data set: Oral 8a dose response on LPS-induced plasma TNFα in mice. The data set is classed as in vivo, ICR mice. Here is the method: ICR mice were dosed orally at 25, 50 and 100 mg/kg of 8a in cyclodextrin, prepared as in Example 7. After 1 hr., each mouse was injected with E. coli LPS (1 μg/mouse). Two hours later, 250 μl samples of blood were obtained by retro-orbital bleeding without anesthetization. The blood was heparinized, centrifuged for 10 min. at 10 K rpm (4° C.) and TNFα determined by ELISA. […] The two bars at the top of the figure show the baseline levels of TNFα in the mouse plasma, which were undetectable, and the effects of 8a administered alone, which were negligible.

[5] abbreviates: human monocytes, LPS, 18 h, ELISA (FIG. 1), read-out: IC50, TNFα production.

For orientation: inhibition means the change of the read-out against control, counted positive when it falls. For the molecule `CCOC(=O)CCCn1c(=O)c2sc(N)nc2n(C)c1=O` [8a, Ethyl 4-[2-Amino-4-methyl-5,7-dioxothiazolo [4,5-d]pyrimidin-6-yl]-butanoate], in data set [1], the “weight change or lethargy” value is “no weight change or detectable lethargy”. The IC50 was 1 to 3 µM in data set [2]; 0.676 µM in data set [3] (Homo sapiens, 18 h, read-out: IC50, TNFα production); 0.676 µM in data set [3] (Homo sapiens, read-out: TNF inhib. (IC50)). Besides, in the data set with TNFα in the plasma, the “accumulation of TNFα in plasma of LPS-injected mice” value is listed as “completely inhibited”. For the same molecule, in the data set on adjuvant arthritis (maximum score 16, untreated 10 on day 18 (FIG. 7)), the mean arthritis score is reported as 5. Further, the inhibition at 100 mg/kg with adjuvant arthritis (Rattus norvegicus, po, versus untreated, read-out: inhibition of arthritis score) amounted to 50%. Moreover, in the data set with Jurkat cell line, the “growth inhibitory activity on Jurkat cells” value was “neither 8b nor 8a had significant growth inhibitory activity”. For the same molecule, the “effect on TNFα plasma concentration” value in data set [4] (25 mg/kg oral, LPS 1 h later, blood 2 h after LPS (FIG. 5)) was “significant inhibitory effect”; in data set [4] (50 mg/kg oral, compared with 25 mg/kg (FIG. 5)), “greater”. For the same molecule, the “effect of 8a administered alone on plasma TNFα” value in data set [4] (without LPS (FIG. 5)) was “negligible”.

Take `Fc1ccc(-c2ncn(CCCN3CCOCC3)c2-c2ccncc2)cc1` [SB-210313, reference compound]: in data set [3] (setting [5]), the IC50 was 1.15 µM.

For the molecule `COc1ccc(C2CNC(=O)C2)cc1OC1CCCC1` (stereo not shown) [rolipram, reference compound], the IC50 in data set [3] (setting [5]) is 2.5 µM.
